Results: ChEMBL document CHEMBL5370669, “Isolation and Structure Determination of Akunolides, Macrolide Glycosides from a Marine Okeania sp. Cyanobacterium” (J Nat Prod, 2023)

How the values were obtained:
[1] = tested on: Trypanosoma brucei rhodesiense; assay: Antitrypanosomal activity against blood stream form of Trypanosoma brucei rhodesiense IL-1501 assessed as growth inhibition incubated for 69 hrs by alamar blue staining based microplate fluorescence scanner analysis; assay type: functional, organism-based; conditions: IL-1501, 69 h
[2] = Growth inhibition of human WI-38 cells incubated for 72 hrs by MTT assay; assay type: toxicity, cell-based
[3] = Selectivity ratio of IC50 for cytotoxicity against human WI-38 cells to IC50 for antitrypanosomal activity against Trypanosoma brucei rhodesiense IL-1501; assay type: toxicity, cell-based

Compound | IC50 [1] [µM] | IC50 at 72 h [2] [µM] | selectivity ratio [3]
C#CCCC/C=C/C=C/[C@H]1OC(=O)C[C@@H]2O[C@H](C[C@H](O)C[C@H](C)C[C@@H](O)C1(C)C)C[C@H](O[C@@H]1OC[C@@H](OC)[C@H](OC)[C@H]1O)C2(C)C | 11 | > 150 | > 15
C=CCCC/C=C/C=C/[C@H]1OC(=O)C[C@@H]2O[C@H](C[C@H](O)C[C@H](C)C[C@@H](O)C1(C)C)C[C@H](O[C@@H]1OC[C@@H](OC)[C@H](O)[C@H]1O)C2(C)C | 12 | > 150 | > 15
C=CCCC/C=C/C=C/[C@H]1OC(=O)C[C@@H]2O[C@H](C[C@H](O)C[C@H](C)C[C@@H](O)C1(C)C)C[C@H](O[C@@H]1OC[C@@H](OC)[C@H](OC)[C@H]1O)C2(C)C | 11 | 55 | 5
CCCCC/C=C/C=C/[C@H]1OC(=O)C[C@@H]2O[C@H](C[C@H](O)C[C@H](C)C[C@@H](O)C1(C)C)C[C@H](O[C@@H]1OC[C@@H](OC)[C@H](O)[C@H]1O)C2(C)C | 14 | 49 | –
N=C(N)c1ccc(OCCCCCOc2ccc(C(=N)N)cc2)cc1 [PENTAMIDINE] | 0.006 | – | –
